Results taken from PMC7586386, “Discovery of Covalent Inhibitors Targeting the Transcriptional Enhanced Associate Domain Central Pocket” (Journal of Medicinal Chemistry, 2020).

How the values were obtained:
hTEAD4 = target: T1, hTEAD4 (Homo sapiens, UniProt Q15561); experiment: Cellular thermal shift assay (CETSA) in HCT116 cell lysates; format: cell-based; conditions: 50 μM, 10 min, DMSO 49.8
T1 construct: Target engagement in HCT116 cell lysates was proven by means of a cellular thermal shift assay; endogenous in cells; host or cells: HCT116 cell lysate
T1 sequence (Q15561 whole entry): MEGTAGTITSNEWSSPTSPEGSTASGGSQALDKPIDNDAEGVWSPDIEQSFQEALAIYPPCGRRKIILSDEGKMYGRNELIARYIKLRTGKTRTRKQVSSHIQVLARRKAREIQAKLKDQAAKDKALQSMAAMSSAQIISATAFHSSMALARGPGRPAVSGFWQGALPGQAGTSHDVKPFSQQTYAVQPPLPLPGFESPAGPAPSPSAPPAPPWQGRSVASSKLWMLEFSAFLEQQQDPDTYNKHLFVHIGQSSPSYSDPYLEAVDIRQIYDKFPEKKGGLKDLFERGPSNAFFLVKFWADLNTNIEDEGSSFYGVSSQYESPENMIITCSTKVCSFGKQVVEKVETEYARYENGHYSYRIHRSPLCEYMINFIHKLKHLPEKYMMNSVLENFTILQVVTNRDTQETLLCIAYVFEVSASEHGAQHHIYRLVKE
Method: HCT116 cells were grown in Dulbecco’s modified Eagle’s medium (Sigma-Aldrich, #P04-03550) containing 10% fetal bovine serum, 1× NEAA (Sigma-Aldrich, # P08-32800) and 1 mM sodium pyruvate (Sigma-Aldrich, #S8636) until they reached 90% confluency. Cells were detached, transferred to two separate tubes, and washed three times with PBS. Then, 0.6 mL of PBS containing 0.04% NP-40 was added to each tube and cells were lysed by means of freeze and thaw. Lysates were centrifuged (Beckman Optima MAX-TL) at 100,000g, 4 °C for 25 min and protein concentration was determined using the DC Protein Assay Kit I (Bio-Rad, #5000111). Aliquots (1.5 mL) containing 1 mg/mL protein were stored at −80 °C until further usage.
Compound 19 (2.75 μL 10 mM stock, 50 μM) or DMSO (2.75 μL) was added to 550 μL of HCT116 lysates (1 mg/mL), samples were mixed and incubated for 10 min at room temperature. Treated and nontreated lysates were divided into ten aliquots, each 50 μL in PCR tubes. The aliquots were individually heated at different temperatures (Eppendorf Mastercycler ep Gradient S). […] To 16 μL of each supernatant was added 4 μL of 5× loading buffer and incubated for 5 min at 95 °C, before samples were analyzed by immunoblotting. […]
Images were analyzed with ImageJ (FUJI). […]

mTEAD4 (nonacylated) = target: T2, mTEAD4 (nonacylated) (Mus musculus, UniProt Q62296); experiment: 1H–15N HSQC NMR; format: binding; conditions: 0.5 mM compound, versus DMSO
T2 construct: made in house
T2 sequence (Q62296 210-427 limits assumed): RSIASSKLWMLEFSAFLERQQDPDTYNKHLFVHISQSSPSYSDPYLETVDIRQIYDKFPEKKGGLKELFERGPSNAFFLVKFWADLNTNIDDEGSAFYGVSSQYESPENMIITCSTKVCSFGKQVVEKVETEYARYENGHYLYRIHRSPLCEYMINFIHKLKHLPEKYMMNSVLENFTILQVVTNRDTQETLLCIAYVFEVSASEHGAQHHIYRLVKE
Method: The ^13C/^15N-labeled mTEAD4 was prepared following a protocol established earlier,[45] and the protein was deacylated as described above for hTEAD4. ^1H–^15N HSQC spectra in the presence of DMSO or the test compound (0.5 mM) were collected at 37 °C on a Bruker 600 MHz magnet equipped with a cryoprobe in 20 mM HEPES, pH 7.3 buffer containing 150 mM NaCl and 1 mM DTT. The spectra were processed and overlaid.

hTEAD4 (nonacylated) = target: T3, hTEAD4 (nonacylated) (Homo sapiens, UniProt Q15561); experiment: Time-dependent inhibition, thiol conjugation assay; format: binding
T3 construct: N-terminal His6-tagged hTEAD4^217–434 was subcloned; made in house; host or cells: Escherichia coli BL21-CodonPlus (DE3)-RIPL
T3 sequence (Q15561 217-434): as the sequence (Q62296 210-427 limits assumed) above, with I3V, R19Q, S35G, T48A, E67D, D91E, A96S, L142S counted along it
Method: To serially diluted solutions of the tested compounds in 5 μL of assay buffer [HEPES (25 mM) and NaCl (150 mM) pH 6.5], freshly prepared 5 μL of 0.45 μM protein solution was added and incubated at room temperature for 10 min, followed by addition of 5 μL of 0.45 μM CPM solution, giving a 15 μL final assay volume, 150 nM protein, and 150 nM CPM. The assay plate was shaken at room temperature for 1 h before measuring the fluorescence (Ex/Em: 380/470 nm). Compound 19 was used as an internal standard to determine 100% inhibition.
TDI of hTEAD4 (nonacylated) by compound 19 was monitored in FP (central pocket binding) and thiol conjugation assays at 5–7 different concentrations (0.15–40 μM) following 1, 2, 4, and 24 h incubation at 4 °C (mean ± SD; n = 2). By fitting the percent of inhibition versus preincubation time at different concentrations, kobs was calculated. Next, kobs was plotted against concentration and was further fitted to a nonlinear regression model to determine the kinetic parameters of covalent inhibition of hTEAD4, where plateau is showing kinact (min^–1) and t1/2 is Ki (μM).

melting temperature of hTEAD4 (CETSA) (hTEAD4): 53.1 °C
kinact (hTEAD4 (nonacylated); supplementary CSV): 0.000333 s⁻¹
kinact/KI (hTEAD4 (nonacylated); thiol conjugation assay): 138 M⁻¹ s⁻¹
Compound: O=c1cc(CO)oc(C(Nc2ccccc2)c2ccccc2)c1O (stereo not shown) [Compound 19, 3-Hydroxy-6-(hydroxymethyl)-2-(phenyl(phenylamino)methyl)-4H-pyran-4-one]
effect on 1H–15N HSQC spectrum (mTEAD4 (nonacylated)): induced line broadening of several residues
